The record followed here is US20050192261A1, “Methods and reagents for the treatment of immunoinflammatory disorders” (priority 2003, published 2005).

Structures can show the parent of a compound that is named as a salt. Where two headings read alike, the source gives them in different places.

The experiment concerns TNFα secretion in white blood cells from human buffy coat stimulated with phorbol 12-myristate 13-acetate and ionomycin. In words: TNFα secretion assay. As to conditions: for inhibition at 16 µM / inhibition at 31 µM / inhibition at 0.5 µM / inhibition at 1 µM: Homo sapiens; for inhibition at 0.5 µM: read-out: % inhibition of TNFα secretion, Rolipram 0.5 μM; for inhibition at 1 µM: read-out: % inhibition of TNFα secretion, Rolipram 1 μM.

[1] abbreviates: Bromodiphenhydramine HCl μM r5-r13: 0,0.21,0.43,0.85,1.7,3.4,6.8,14,27.
The mark [2] stands for this setting: Cyproheptadine HCl μM r5-r13: 0,0.24,0.48,0.96,1.9,3.9,7.7,15,31.
Where [3] appears, read: Loratadine μM r5-r13: 0,0.2,0.41,0.82,1.6,3.3,6.5,13,26.
[4] abbreviates: Thiethylperazine Maleate μM r5-r13: 0,0.2,0.39,0.78,1.6,3.1,6.3,13,25.

Experimental: Drugs were added to the indicated concentration. […] The plate was then washed again with 0.1% Tween 20/PBS. An HRP-luminescent substrate was added to each well, and the light intensity of each well was measured using a plate luminometer.

The inhibition is the drop in the measured response relative to a control, in per cent. Regarding `CC(CN1c2ccccc2Sc2ccccc21)N(C)C` (stereo not drawn) [Promethazine HCl, promethazine], the inhibition at 16 µM worked out at 30.4% (read-out: percent inhibition (dose matrix), Table 99, Promethazine HCl 16 μM, Amoxapine 0-25 μM); 30.8% (read-out: percent inhibition (dose matrix), Table 100, Promethazine HCl 16 μM, Fluoxetine HCl 0-29 μM); 31% (read-out: percent inhibition (dose matrix), Table 101, Promethazine HCl 16 μM, NOrtriptyline HCl 0-33 μM per row (c1)); 36.7% (read-out: percent inhibition (dose matrix), Table 102, Promethazine HCl 16 μM, Paroxetine HCl 0-27 μM per row (c1)); 22% (read-out: percent inhibition (dose matrix), Table 105, Promethazine HCl 16 μM, Fluoxetine HCl 0-29 μM); 60.4% (read-out: percent inhibition of TNFα secretion, Promethazine HCl 16 μM, Amoxapine μM r5-r13: 0,0.2,0.4,0.8,1.6,3.2,6.4,13,25). For the same compound, the inhibition at 16 µM worked out at 42.8% (read-out: percent inhibition of TNFα secretion, Promethazine HCl 16 μM, Desipramine HCl: 0/0.25/0.5/1/2/4/8/16/32 μM); 65.3% (read-out: percent inhibition of TNFα secretion, Promethazine HCl 16 μM, Fluoxetine HCl μM r5-r13: 0,0.23,0.45,0.9,1.8,3.6,7.2,14,29); 57.1% (read-out: percent inhibition of TNFα secretion, Promethazine HCl 16 μM, Paroxetine HCl μM by row r5-r13: 0/0.21/0.42/0.83/1.7/3.3/6.7/13/27); 40% (read-out: percent inhibition of TNFα secretion, Promethazine HCl 16 μM, Sertraline HCl by grid row r5-r13: 0/0.25/0.5/1/2/4/7.9/16/32 μM). In addition, the inhibition at 31 µM is 80.5% (read-out: percent inhibition (dose matrix), Table 99, Promethazine HCl 31 μM, Amoxapine 0-25 μM); 69.5% (read-out: percent inhibition (dose matrix), Table 100, Promethazine HCl 31 μM, Fluoxetine HCl 0-29 μM); 69.4% (read-out: percent inhibition (dose matrix), Table 101, Promethazine HCl 31 μM, NOrtriptyline HCl 0-33 μM per row (c1)); 78.8% (read-out: percent inhibition (dose matrix), Table 102, Promethazine HCl 31 μM, Paroxetine HCl 0-27 μM per row (c1)); 62.3% (read-out: percent inhibition (dose matrix), Table 105, Promethazine HCl 31 μM, Fluoxetine HCl 0-29 μM); 85.4% (read-out: percent inhibition of TNFα secretion, Promethazine HCl 31 μM, Amoxapine μM r5-r13: 0,0.2,0.4,0.8,1.6,3.2,6.4,13,25). The inhibition at 31 µM by setting is: (read-out: percent inhibition of TNFα secretion, Promethazine HCl 31 μM, Desipramine HCl: 0/0.25/0.5/1/2/4/8/16/32 μM) 75.7%; (read-out: percent inhibition of TNFα secretion, Promethazine HCl 31 μM, Fluoxetine HCl μM r5-r13: 0,0.23,0.45,0.9,1.8,3.6,7.2,14,29) 87%; (read-out: percent inhibition of TNFα secretion, Promethazine HCl 31 μM, Paroxetine HCl μM by row r5-r13: 0/0.21/0.42/0.83/1.7/3.3/6.7/13/27) 84.2%; (read-out: percent inhibition of TNFα secretion, Promethazine HCl 31 μM, Sertraline HCl by grid row r5-r13: 0/0.25/0.5/1/2/4/7.9/16/32 μM) 72.1%. For the setting “prednisolone 1 μM, promethazine HCl r5-r13: 0,0.24,0.49,0.97,1.9,3.9,7.8,16,31 μM”, the “inhibition of TNFα secretion” value was 38.
For `COc1ccc(CN(CCN(C)C)c2ccccn2)cc1` [Pyrilamine Maleate], where the note is “prednisolone […], pyrilamine maleate r5-r13: 0,0.19,0.38,0.76,1.5,3,6.1,12,24 μM”, the “inhibition of TNFα secretion” value came out at 20.
As for `COc1ccc(C2CNC(=O)C2)cc1OC1CCCC1` (stereo not drawn) [Rolipram], the inhibition at 0.5 µM was found to be 37% under setting [1], 44% under setting [2], 43% under setting [3] and 38% under setting [4]. Further, the inhibition at 1 µM reads like this: under setting [1], 44%; under setting [2], 38%; under setting [3], 50%; under setting [4], 39%.
